Test results published in US9968645B2, “Method for enhanced production of morinda metabolites” (priority 2014, dated 2018).

Tested on: DSS-induced ulcerative colitis in mouse
Assay: Acute mouse ulcerative colitis model, colitis induced by 4% dextran sulfate (DSS)
Assay type: in vivo
Conditions: Male BalbC mice, 20 mg/kg co-fed with 4% DSS for 7 days
Experimental: The therapeutic efficacy of the methanolic extracts of MO hairy roots was examined in an acute mouse ulcerative colitis model. The mouse ulcerative colitis model is used to predict ulcerative colitis and treatment of that disease in human subjects (e.g. Low et. al., 2013). Male BalbC mice in groups of 10 were housed in Good Animal Care Protocol conditions. Colitis was induced by 4% dextran sulfate (DSS). In a pilot dosing study (50 mg/kg, 150 mg/kg, and 450 mg/kg) of MO root extracts on UC, an unexpected finding was made. […] Subsequently the effect of drug treatment on colitis was investigated by co-feeding the mice extracts from MO native plants or hairy root culture at doses below 50 mg/kg along with 4% DSS for 7 days. 5-amino-salicylic acid (5-ASA) was used as a positive treatment control. Animals were weighed, and stool consistency was monitored daily to determine the disease activity index (DAD. All animals were anesthetized and the colons were separated from the proximal rectum, and the colon length was measured between the ileo-cecal junction and the proximal rectum. [table]

## Nc1ccc(O)c(C(=O)O)c1 [5-ASA, 5-amino-salicylic acid]
  DAI (disease activity index): 3.0 ± 2.22
  Length of colon: 6.77 ± 0.19 cm
Including disruption of colonic crypts and damaged glandular structures
  % of mice developing ulcer: 60%
